Paper PMC6277198, “Molecular basis for activation of lecithin:cholesterol acyltransferase by a compound that increases HDL cholesterol” (eLife, 2018)
Entries after “also recorded” stand apart in the source; their conditions may differ.

Columns and labels:
[1] = molecular target: T1, WT LCAT (Homo sapiens, UniProt P04180); test: MST binding assay; design: hydrolysis of 4-methylumbelliferyl palmitate (MUP) by full-length LCAT; made in house; host or cells: HEK293F (transient transfection, secreted)
T1 sequence (P04180 25-440): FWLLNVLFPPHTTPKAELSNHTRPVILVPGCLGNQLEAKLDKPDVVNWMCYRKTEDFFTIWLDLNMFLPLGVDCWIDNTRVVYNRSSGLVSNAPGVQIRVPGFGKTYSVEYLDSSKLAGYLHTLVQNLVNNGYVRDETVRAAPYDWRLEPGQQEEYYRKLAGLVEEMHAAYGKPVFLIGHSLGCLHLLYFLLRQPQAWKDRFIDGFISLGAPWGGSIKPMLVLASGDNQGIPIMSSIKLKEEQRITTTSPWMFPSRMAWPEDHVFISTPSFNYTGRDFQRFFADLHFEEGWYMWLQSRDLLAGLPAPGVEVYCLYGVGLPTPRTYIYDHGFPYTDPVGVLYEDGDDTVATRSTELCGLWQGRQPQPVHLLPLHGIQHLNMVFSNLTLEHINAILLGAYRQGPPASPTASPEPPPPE
Method: MST was used to determine the binding affinity of the compounds to LCAT. Recombinant proteins were labeled with a fluorophore using the Monolith His-tag labeling RED-Tris-NTA 2nd Generation kit following manufacturer’s protocol. Compounds were titrated in a two-fold dilution series starting at 20 μM and incubated with the same volume of 100 nM labeled recombinant protein for 5 min at room temperature. Measurements were carried out in PBS containing 0.05% Tween-20 and standard capillaries using a Monolith NT.115 instrument (Nanotemper Technologies) with 50% LED excitation power, 60% MST power, MST on-time of 30 s and off-time of 5 s. Kd values were calculated by fitting the thermophoresis signal at 20 s of the thermograph using MO.AffinityAnalysis software.

[2] = tested on: LCAT; test: Soluble esterase assay (pNPB); type: biochemical, human; settings: any variant of LCAT
Method: (§1) The esterase assay was performed as previously described ([Glukhova et al., 2015]) at least in triplicate. pNPB was diluted to 10 mM into reaction buffer containing 10% dimethylsulfoxide. The reaction was started by addition of 40 μL 1 μM LCAT containing either 3.2% DMSO or 11.1 μM compound 1 to 10 μL of pNPB. The increase in absorbance at 400 nm was monitored on a Spectramax plate reader for 15 min. Significance was determined using a one-way analysis of variance followed by Tukey’s multiple comparisons post-test in GraphPad Prism.

[3] = molecular target: T2, LCAT (Homo sapiens, UniProt P04180); test: Soluble esterase assay (pNPB); type: biochemical; settings: WT LCAT
T2 construct: hydrolysis of 4-methylumbelliferyl palmitate (MUP) by full-length LCAT; made in house; host or cells: HEK293F (transient transfection, secreted)
T2 sequence (P04180 25-440): T1 sequence (P04180 25-440)
Method: as §1

[4] = molecular target: T1, WT LCAT; test: Bio-layer interferometry, LCAT binding to ApoA-I HDLs; settings: 10 μM compound 1
Method: A FortéBio Octet RED system was used to measure the binding of LCAT to ApoA-I HDLs. HDLs were prepared with 1,2-dipalmitoyl-sn-glycero-3-phosphocholine (DPPC), 1-palmitoyl-2-oleoyl-sn-glycero-3-phosphocholine (POPC), and 16:0 biotinyl Cap PE in a ratio of 49.5:49.5:1 ([Manthei et al., 2017]). HDLs were diluted 1/20 in assay buffer (1X PBS pH 7.4, 1 mM EDTA, 60 µM fatty acid free bovine serum albumin) and then immobilized on streptavidin tips for 600 s, followed by a wash in assay buffer for 600 s to remove unbound HDLs. The tips were then moved to buffer containing DMSO or compound 1 and allowed to equilibrate for 120 s before a baseline was established for 30 s. […] In order to determine Kd values, the kobs (from association) were determined at each concentration for the fast phase and then plotted against LCAT concentration. The slope of the line was evaluated as kon using the equation kobs = kon[LCAT]+koff and the resultant Kd = koff/kon. For statistical analysis, the kon, koff, and Kd for each replicate was determined individually and the results were compared to WT using a one-way analysis of variance followed by Tukey’s multiple comparisons post-test in GraphPad Prism.

[5] = molecular target: T3, LPLA2 (Homo sapiens, UniProt Q8NCC3); test: Differential scanning fluorimetry; type: binding
T3 sequence (Q8NCC3 34-412): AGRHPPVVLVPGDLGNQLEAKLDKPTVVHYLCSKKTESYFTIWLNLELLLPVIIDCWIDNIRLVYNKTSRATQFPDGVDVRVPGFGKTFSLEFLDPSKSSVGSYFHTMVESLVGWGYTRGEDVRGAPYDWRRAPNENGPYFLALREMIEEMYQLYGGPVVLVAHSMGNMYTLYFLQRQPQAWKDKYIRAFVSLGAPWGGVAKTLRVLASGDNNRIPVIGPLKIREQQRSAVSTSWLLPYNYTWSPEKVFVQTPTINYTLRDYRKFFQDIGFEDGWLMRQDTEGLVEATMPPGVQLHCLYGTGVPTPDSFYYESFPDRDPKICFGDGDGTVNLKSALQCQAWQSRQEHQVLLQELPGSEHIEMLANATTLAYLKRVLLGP

Stimulation of pNPB esterase activity [2]	Effect on pNPB esterase activity of WT [3]	Kd ([1]; read-out: Kd, binding to LCAT via microscale thermophoresis) [nM]	Thermal stabilization (DSF) [5]	SMILES	Binding to WT LCAT by MST [1]	Effect on LCAT binding to HDL (kon, koff, Kd) in BLI [4]
–	–	–	–	O=C1CC(O)(C(F)(F)F)c2c(ncn2C2CCNCC2)N1 (stereo not shown) [compound 6, 7-Hydroxy-1-(piperidin-4-yl)−7-(trifluoromethyl)−6,7-dihydro-1H-imidazo[4,5-b]pyridin-5(4H)-one]	does not bind; also recorded: unable to bind	–
did not stimulate	seemed to inhibit	100 ± 14	not stabilized	N#Cc1cnc(N2CCC(c3n[nH]c4c3C(O)(C(F)(F)F)CC(=O)N4)CC2)cc1C(F)(F)F (stereo not shown) [compound 1, 6-(4-(4-Hydroxy-6-oxo-4-(trifluoromethyl)−4,5,6,7-tetrahydro-1H-pyrazolo[3,4-b]pyridin-3-yl)piperidin-1-yl)−4-(trifluoromethyl)nicotinonitrile]	does	does not affect; also recorded: no change
